Laboratory results: the supplement of paper PMC10307832

Legend:
Assay in all cases: relative viability (nuclei count vs DMSO), 5 days (fraction); higher = more cells survive
NCI-H1734 = test system: NCI-H1734
Procedure, shortened: (§1)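 Each reported value is a median over duplicate plates. It expresses relative viability: treated-well nuclei count divided by vehicle-well nuclei count. Lung cancer cell lines in 1536-well plates were dosed by pin tool a day after seeding, alone with one drug or with a fixed anchor-drug dose plus five library-drug doses (not always all listed) in √10 steps, and nuclei were counted after 5 days.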

201T = test system: 201T
Procedure, shortened: as §1

RERF-LC-KJ = test system: RERF-LC-KJ
Procedure, shortened: as §1

PC-14 = test system: PC-14
Procedure, shortened: as §1

HCC-44 = test system: HCC-44
Procedure, shortened: as §1

NCI-H1993 = test system: NCI-H1993
Procedure, shortened: as §1

NCI-H441 = test system: NCI-H441
Procedure, shortened: as §1

EPLC-272H = test system: EPLC-272H
Procedure, shortened: as §1

NCI-H520 = test system: NCI-H520
Procedure, shortened: as §1

H3255 = test system: H3255
Procedure, shortened: as §1

NCI-H1793 = test system: NCI-H1793
Procedure, shortened: as §1

NCI-H2347 = test system: NCI-H2347
Procedure, shortened: as §1

NCI-H3122 = test system: NCI-H3122
Procedure, shortened: as §1

NCI-H2085 = test system: NCI-H2085
Procedure, shortened: as §1

LOU-NH91 = test system: LOU-NH91
Procedure, shortened: as §1

NCI-H2405 = test system: NCI-H2405
Procedure, shortened: as §1

NCI-H647 = test system: NCI-H647
Procedure, shortened: as §1

NCI-H2023 = test system: NCI-H2023
Procedure, shortened: as §1

COR-L23 = test system: COR-L23
Procedure, shortened: as §1

NCI-H1563 = test system: NCI-H1563
Procedure, shortened: as §1

SMILES: CC1(C)CCC(c2ccc(Cl)cc2)=C(CN2CCN(c3ccc(C(=O)NS(=O)(=O)c4ccc(N[C@H](CCN5CCOCC5)CSc5ccccc5)c(S(=O)(=O)C(F)(F)F)c4)cc3)CC2)C1 [Navitoclax] + C[C@]1(O)C[C@@H](c2nc(-c3ccc4ccc(-c5ccccc5)nc4c3)c3c(N)nccn32)C1 [Linsitinib] (partner 1 µM)
- relative viability (NCI-H1734; first compound 0.005 µM): 0.834
- relative viability (NCI-H1734; first compound 0.01581 µM): 0.948
- relative viability (NCI-H1734; first compound 0.1581 µM): 0.797
- relative viability (NCI-H1734; first compound 0.5 µM): 0.857
- relative viability (201T; first compound 0.005 µM): 1.11
- relative viability (201T; first compound 0.01581 µM): 1.09
- relative viability (201T; first compound 0.05 µM): 0.95
- relative viability (201T; first compound 0.1581 µM): 1.05
- relative viability (201T; first compound 0.5 µM): 1.01
- relative viability (RERF-LC-KJ; first compound 0.005 µM): 0.905
- relative viability (RERF-LC-KJ; first compound 0.01581 µM): 0.859
- relative viability (RERF-LC-KJ; first compound 0.05 µM): 0.927
- relative viability (RERF-LC-KJ; first compound 0.1581 µM): 0.915
- relative viability (RERF-LC-KJ; first compound 0.5 µM): 0.904
- relative viability (PC-14; first compound 0.005 µM): 1.03
- relative viability (PC-14; first compound 0.01581 µM): 1.04
- relative viability (PC-14; first compound 0.05 µM): 1.07
- relative viability (PC-14; first compound 0.1581 µM): 0.926
- relative viability (PC-14; first compound 0.5 µM): 0.977
- relative viability (HCC-44; first compound 0.005 µM): 0.592
- relative viability (HCC-44; first compound 0.01581 µM): 0.625
- relative viability (HCC-44; first compound 0.05 µM): 0.594
- relative viability (HCC-44; first compound 0.1581 µM): 0.649
- relative viability (HCC-44; first compound 0.5 µM): 0.646
- relative viability (NCI-H1993; first compound 0.005 µM): 0.721
- relative viability (NCI-H1993; first compound 0.01581 µM): 0.752
- relative viability (NCI-H1993; first compound 0.05 µM): 0.706
- relative viability (NCI-H1993; first compound 0.1581 µM): 0.672
- relative viability (NCI-H1993; first compound 0.5 µM): 0.675
- relative viability (NCI-H441; first compound 0.005 µM): 0.449
- relative viability (NCI-H441; first compound 0.01581 µM): 0.587
- relative viability (NCI-H441; first compound 0.05 µM): 0.412
- relative viability (NCI-H441; first compound 0.1581 µM): 0.44
- relative viability (NCI-H441; first compound 0.5 µM): 0.706
- relative viability (EPLC-272H; first compound 0.005 µM): 1.29
- relative viability (EPLC-272H; first compound 0.1581 µM): 1.26
- relative viability (EPLC-272H; first compound 0.5 µM): 0.997
- relative viability (NCI-H520; first compound 0.005 µM): 0.891
- relative viability (NCI-H520; first compound 0.01581 µM): 1.15
- relative viability (NCI-H520; first compound 0.05 µM): 1.12
- relative viability (NCI-H520; first compound 0.1581 µM): 0.832
- relative viability (NCI-H520; first compound 0.5 µM): 0.771
- relative viability (H3255; first compound 0.005 µM): 0.917
- relative viability (H3255; first compound 0.01581 µM): 1.12
- relative viability (H3255; first compound 0.05 µM): 0.877
- relative viability (H3255; first compound 0.1581 µM): 0.892
- relative viability (H3255; first compound 0.5 µM): 0.89
- relative viability (NCI-H1793; first compound 0.005 µM): 0.97
- relative viability (NCI-H1793; first compound 0.01581 µM): 1.17
- relative viability (NCI-H1793; first compound 0.05 µM): 0.643
- relative viability (NCI-H1793; first compound 0.1581 µM): 0.834
- relative viability (NCI-H1793; first compound 0.5 µM): 0.766
- relative viability (NCI-H2347; first compound 0.005 µM): 0.94
- relative viability (NCI-H2347; first compound 0.01581 µM): 1.03
- relative viability (NCI-H2347; first compound 0.05 µM): 0.876
- relative viability (NCI-H2347; first compound 0.1581 µM): 0.954
- relative viability (NCI-H2347; first compound 0.5 µM): 0.973
- relative viability (NCI-H3122; first compound 0.005 µM): 1.11
- relative viability (NCI-H3122; first compound 0.01581 µM): 1.08
- relative viability (NCI-H3122; first compound 0.05 µM): 1.13
- relative viability (NCI-H3122; first compound 0.1581 µM): 0.985
- relative viability (NCI-H3122; first compound 0.5 µM): 1.02
- relative viability (NCI-H2085; first compound 0.005 µM): 0.828
- relative viability (NCI-H2085; first compound 0.01581 µM): 0.96
- relative viability (NCI-H2085; first compound 0.05 µM): 0.831
- relative viability (NCI-H2085; first compound 0.1581 µM): 1
- relative viability (NCI-H2085; first compound 0.5 µM): 0.947
- relative viability (LOU-NH91; first compound 0.005 µM): 0.974
- relative viability (LOU-NH91; first compound 0.01581 µM): 0.999
- relative viability (LOU-NH91; first compound 0.05 µM): 0.933
- relative viability (LOU-NH91; first compound 0.1581 µM): 1.02
- relative viability (LOU-NH91; first compound 0.5 µM): 0.842
- relative viability (NCI-H2405; first compound 0.005 µM): 0.899
- relative viability (NCI-H2405; first compound 0.01581 µM): 1.02
- relative viability (NCI-H2405; first compound 0.05 µM): 0.922
- relative viability (NCI-H2405; first compound 0.1581 µM): 0.937
- relative viability (NCI-H2405; first compound 0.5 µM): 0.88
- relative viability (NCI-H647; first compound 0.005 µM): 1.05
- relative viability (NCI-H647; first compound 0.01581 µM): 1.12
- relative viability (NCI-H647; first compound 0.05 µM): 1.23
- relative viability (NCI-H647; first compound 0.1581 µM): 1.17
- relative viability (NCI-H647; first compound 0.5 µM): 1.05
- relative viability (NCI-H2023; first compound 0.005 µM): 0.625
- relative viability (NCI-H2023; first compound 0.01581 µM): 0.713
- relative viability (NCI-H2023; first compound 0.05 µM): 0.716
- relative viability (NCI-H2023; first compound 0.1581 µM): 0.766
- relative viability (NCI-H2023; first compound 0.5 µM): 0.647
- relative viability (COR-L23; first compound 0.005 µM): 0.874
- relative viability (COR-L23; first compound 0.01581 µM): 0.991
- relative viability (COR-L23; first compound 0.05 µM): 0.97
- relative viability (COR-L23; first compound 0.1581 µM): 0.853
- relative viability (COR-L23; first compound 0.5 µM): 0.88
- relative viability (NCI-H1563; first compound 0.005 µM): 0.99
- relative viability (NCI-H1563; first compound 0.01581 µM): 1.13
- relative viability (NCI-H1563; first compound 0.05 µM): 1.17
- relative viability (NCI-H1563; first compound 0.1581 µM): 1.24
- relative viability (NCI-H1563; first compound 0.5 µM): 1.27
